Assay results taken from ChEMBL document CHEMBL4507264, “Data for DCP probe BAY-7598” (2021).

Assays:
[1] = tested on: Tyrosine-protein kinase ABL1 (Homo sapiens), P00519 [T315I]; settings: Compound concentration 1000.0 nM
[2] = molecular target: Sigma intracellular receptor 2 (Homo sapiens) (UniProt Q5BJF2); settings: Compound concentration 10.0 uM
[3] = molecular target: Tyrosine-protein kinase BTK (Homo sapiens) (UniProt Q06187); settings: Compound concentration 1000.0 nM
[4] = molecular target: Serine/threonine-protein kinase BRSK2 (Homo sapiens) (UniProt Q8IWQ3); settings: Compound concentration 1000.0 nM
Serine/threonine-protein kinase BRSK2 (Homo sapiens), sequence (Q8IWQ3 whole entry): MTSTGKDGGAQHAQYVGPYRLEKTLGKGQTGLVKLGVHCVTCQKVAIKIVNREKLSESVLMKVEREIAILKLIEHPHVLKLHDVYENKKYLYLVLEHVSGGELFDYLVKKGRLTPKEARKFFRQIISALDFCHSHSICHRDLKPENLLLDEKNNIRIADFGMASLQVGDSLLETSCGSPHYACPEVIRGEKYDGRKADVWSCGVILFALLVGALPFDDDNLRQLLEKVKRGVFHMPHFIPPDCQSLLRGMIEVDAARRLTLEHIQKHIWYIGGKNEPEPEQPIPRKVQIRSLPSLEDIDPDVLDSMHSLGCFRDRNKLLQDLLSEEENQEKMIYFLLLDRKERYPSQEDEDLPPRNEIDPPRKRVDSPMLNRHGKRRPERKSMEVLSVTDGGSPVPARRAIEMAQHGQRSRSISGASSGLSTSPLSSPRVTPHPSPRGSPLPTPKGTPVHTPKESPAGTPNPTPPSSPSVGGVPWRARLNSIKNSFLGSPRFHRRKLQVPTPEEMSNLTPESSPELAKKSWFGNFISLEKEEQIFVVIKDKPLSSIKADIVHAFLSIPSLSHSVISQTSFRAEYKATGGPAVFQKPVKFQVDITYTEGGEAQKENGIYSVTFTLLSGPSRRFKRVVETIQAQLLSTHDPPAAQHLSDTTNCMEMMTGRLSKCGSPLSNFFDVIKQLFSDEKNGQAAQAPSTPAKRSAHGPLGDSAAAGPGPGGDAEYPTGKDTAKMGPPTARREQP

[5] = molecular target: Tyrosine-protein kinase Lck (Homo sapiens) (UniProt P06239); settings: Compound concentration 1000.0 nM
[6] = molecular target: 5'-AMP-activated protein kinase catalytic subunit alpha-2 (Homo sapiens) (UniProt P54646); settings: Compound concentration 1000.0 nM
[7] = molecular target: Bone morphogenetic protein receptor type-2 (Homo sapiens) (UniProt Q13873); settings: Compound concentration 1000.0 nM
[8] = molecular target: Mitogen-activated protein kinase kinase kinase 20 (Homo sapiens) (UniProt Q9NYL2); settings: Compound concentration 1000.0 nM
Mitogen-activated protein kinase kinase kinase 20 (Homo sapiens), sequence (Q9NYL2 2-800 limits assumed): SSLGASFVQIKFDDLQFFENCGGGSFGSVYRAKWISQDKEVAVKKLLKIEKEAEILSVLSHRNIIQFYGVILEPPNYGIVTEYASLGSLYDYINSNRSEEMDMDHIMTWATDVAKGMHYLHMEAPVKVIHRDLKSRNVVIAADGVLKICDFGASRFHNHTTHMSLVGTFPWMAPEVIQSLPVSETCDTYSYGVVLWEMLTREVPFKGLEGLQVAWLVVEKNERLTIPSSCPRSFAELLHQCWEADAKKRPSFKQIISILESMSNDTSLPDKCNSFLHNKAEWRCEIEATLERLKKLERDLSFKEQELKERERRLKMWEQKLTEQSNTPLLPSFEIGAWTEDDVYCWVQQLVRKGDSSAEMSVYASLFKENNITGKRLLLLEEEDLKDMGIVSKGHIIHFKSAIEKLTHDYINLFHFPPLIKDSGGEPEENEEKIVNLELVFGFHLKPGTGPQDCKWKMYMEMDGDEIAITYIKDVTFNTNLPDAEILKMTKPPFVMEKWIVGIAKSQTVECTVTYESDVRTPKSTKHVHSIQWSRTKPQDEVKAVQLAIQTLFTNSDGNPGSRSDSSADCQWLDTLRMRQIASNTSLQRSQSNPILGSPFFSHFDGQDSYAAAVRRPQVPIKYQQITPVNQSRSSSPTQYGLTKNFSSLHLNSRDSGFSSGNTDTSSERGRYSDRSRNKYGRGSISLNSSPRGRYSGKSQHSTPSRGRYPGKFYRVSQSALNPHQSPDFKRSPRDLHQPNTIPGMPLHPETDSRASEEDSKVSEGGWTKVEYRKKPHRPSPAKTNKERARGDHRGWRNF

[9] = tested on: Fibroblast growth factor receptor 3 (Homo sapiens), P22607 [G697C]; settings: Compound concentration 1000.0 nM
[10] = molecular target: Serine/threonine-protein kinase MRCK gamma (Homo sapiens) (UniProt Q6DT37); settings: Compound concentration 1000.0 nM
[11] = molecular target: Cyclin-dependent kinase 16 (Homo sapiens) (UniProt Q00536); settings: Compound concentration 1000.0 nM
[12] = tested on: Epidermal growth factor receptor (Homo sapiens), P00533 [L861Q]; settings: Compound concentration 1000.0 nM
[13] = molecular target: Dual specificity mitogen-activated protein kinase kinase 2 (Homo sapiens) (UniProt P36507); settings: Compound concentration 1000.0 nM
Dual specificity mitogen-activated protein kinase kinase 2 (Homo sapiens), sequence (P36507 whole entry, the tested form may be a part): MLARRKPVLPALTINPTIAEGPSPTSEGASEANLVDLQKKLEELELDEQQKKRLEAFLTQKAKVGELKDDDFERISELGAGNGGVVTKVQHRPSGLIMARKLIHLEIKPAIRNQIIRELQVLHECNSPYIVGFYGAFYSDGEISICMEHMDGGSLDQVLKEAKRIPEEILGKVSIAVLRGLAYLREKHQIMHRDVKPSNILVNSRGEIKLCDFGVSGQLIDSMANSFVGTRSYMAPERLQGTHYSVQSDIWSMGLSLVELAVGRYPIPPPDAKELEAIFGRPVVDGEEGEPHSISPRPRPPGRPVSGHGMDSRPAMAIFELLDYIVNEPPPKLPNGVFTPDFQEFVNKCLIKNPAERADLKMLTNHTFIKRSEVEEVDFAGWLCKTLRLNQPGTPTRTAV

[14] = molecular target: Phosphatidylinositol 3-kinase C2 domain-containing subunit gamma (Homo sapiens) (UniProt O75747); settings: Compound concentration 1000.0 nM
[15] = tested on: Epidermal growth factor receptor (Homo sapiens), P00533 [UNDEFINED MUTATION]; settings: Compound concentration 1000.0 nM
[16] = molecular target: Proto-oncogene tyrosine-protein kinase Src (Homo sapiens) (UniProt P12931); settings: Compound concentration 1000.0 nM
Proto-oncogene tyrosine-protein kinase Src (Homo sapiens), sequence (P12931 2-536 limits assumed): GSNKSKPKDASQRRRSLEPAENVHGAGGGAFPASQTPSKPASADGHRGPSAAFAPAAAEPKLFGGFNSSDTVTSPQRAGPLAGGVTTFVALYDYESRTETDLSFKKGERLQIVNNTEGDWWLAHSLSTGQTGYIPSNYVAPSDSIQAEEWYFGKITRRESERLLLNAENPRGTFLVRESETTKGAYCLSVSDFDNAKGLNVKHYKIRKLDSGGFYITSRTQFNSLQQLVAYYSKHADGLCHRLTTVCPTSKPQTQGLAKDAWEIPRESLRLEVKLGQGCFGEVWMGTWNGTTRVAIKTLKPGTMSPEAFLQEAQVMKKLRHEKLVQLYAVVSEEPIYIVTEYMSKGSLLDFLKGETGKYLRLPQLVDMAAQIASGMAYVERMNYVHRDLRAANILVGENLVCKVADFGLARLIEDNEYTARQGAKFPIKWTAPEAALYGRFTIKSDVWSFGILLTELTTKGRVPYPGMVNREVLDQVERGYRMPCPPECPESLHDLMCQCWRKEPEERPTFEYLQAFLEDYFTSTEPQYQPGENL

[17] = molecular target: T1, 5-hydroxytryptamine receptor 1A (Homo sapiens) (UniProt P08908); settings: Compound concentration 10.0 uM
T1 sequence (whole entry): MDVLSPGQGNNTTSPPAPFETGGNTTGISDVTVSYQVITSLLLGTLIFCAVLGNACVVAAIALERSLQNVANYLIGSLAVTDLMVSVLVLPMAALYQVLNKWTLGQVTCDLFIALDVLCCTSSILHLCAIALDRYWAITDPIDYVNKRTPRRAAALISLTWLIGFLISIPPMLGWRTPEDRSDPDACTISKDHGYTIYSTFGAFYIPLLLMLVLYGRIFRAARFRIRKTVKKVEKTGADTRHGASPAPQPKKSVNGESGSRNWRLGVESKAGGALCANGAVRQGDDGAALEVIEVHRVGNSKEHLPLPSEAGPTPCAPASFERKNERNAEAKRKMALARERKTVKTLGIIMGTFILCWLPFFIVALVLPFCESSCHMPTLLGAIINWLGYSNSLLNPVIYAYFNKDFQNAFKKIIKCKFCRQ

[18] = tested on: Tyrosine-protein kinase ABL1 (Homo sapiens), P00519 [Q252H]; settings: Compound concentration 1000.0 nM
[19] = molecular target: AP2-associated protein kinase 1 (Homo sapiens) (UniProt Q2M2I8); settings: Compound concentration 1000.0 nM
AP2-associated protein kinase 1 (Homo sapiens), sequence (Q2M2I8 whole entry, looked up): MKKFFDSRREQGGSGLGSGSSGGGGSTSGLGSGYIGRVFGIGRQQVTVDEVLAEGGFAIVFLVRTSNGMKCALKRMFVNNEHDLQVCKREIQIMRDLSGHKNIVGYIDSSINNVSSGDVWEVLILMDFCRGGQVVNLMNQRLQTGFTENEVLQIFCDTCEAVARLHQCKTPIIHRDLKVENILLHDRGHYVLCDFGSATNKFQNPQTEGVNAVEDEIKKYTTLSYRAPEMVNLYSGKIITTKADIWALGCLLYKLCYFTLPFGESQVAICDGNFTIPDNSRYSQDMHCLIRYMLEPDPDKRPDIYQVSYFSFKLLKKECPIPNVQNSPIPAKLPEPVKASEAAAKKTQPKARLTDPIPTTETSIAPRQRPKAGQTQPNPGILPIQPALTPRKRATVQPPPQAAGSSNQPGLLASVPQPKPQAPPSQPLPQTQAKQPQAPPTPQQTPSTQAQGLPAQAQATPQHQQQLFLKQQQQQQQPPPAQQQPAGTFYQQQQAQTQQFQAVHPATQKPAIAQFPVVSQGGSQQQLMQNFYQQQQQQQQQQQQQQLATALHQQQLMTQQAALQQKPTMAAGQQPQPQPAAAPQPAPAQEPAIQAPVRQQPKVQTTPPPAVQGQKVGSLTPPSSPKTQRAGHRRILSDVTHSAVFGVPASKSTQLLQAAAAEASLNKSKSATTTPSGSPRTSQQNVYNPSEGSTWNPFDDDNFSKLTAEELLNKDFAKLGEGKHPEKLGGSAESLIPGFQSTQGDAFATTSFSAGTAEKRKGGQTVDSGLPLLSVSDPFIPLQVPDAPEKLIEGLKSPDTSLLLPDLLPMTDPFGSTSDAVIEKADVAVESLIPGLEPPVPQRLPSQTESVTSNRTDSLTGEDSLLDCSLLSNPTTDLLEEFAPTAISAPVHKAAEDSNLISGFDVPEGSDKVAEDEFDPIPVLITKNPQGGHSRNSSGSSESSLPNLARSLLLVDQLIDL

[20] = molecular target: Ribosomal protein S6 kinase alpha-3 (Homo sapiens) (UniProt P51812); settings: Compound concentration 1000.0 nM
[21] = molecular target: T2, Muscarinic acetylcholine receptor M2 (Homo sapiens) (UniProt P08172); settings: Compound concentration 10.0 uM
T2 sequence (whole entry): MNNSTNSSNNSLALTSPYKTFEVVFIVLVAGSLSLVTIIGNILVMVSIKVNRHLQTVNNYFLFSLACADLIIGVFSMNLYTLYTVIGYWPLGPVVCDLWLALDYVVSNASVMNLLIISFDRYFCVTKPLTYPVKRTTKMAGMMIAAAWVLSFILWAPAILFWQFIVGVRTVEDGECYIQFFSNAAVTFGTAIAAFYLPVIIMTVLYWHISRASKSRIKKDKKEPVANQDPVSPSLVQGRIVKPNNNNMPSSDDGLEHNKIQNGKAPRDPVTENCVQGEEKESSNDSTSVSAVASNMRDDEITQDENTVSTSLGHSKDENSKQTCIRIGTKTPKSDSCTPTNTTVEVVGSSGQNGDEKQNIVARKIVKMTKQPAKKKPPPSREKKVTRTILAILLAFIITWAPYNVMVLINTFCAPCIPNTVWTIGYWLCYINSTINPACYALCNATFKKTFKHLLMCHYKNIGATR

[22] = molecular target: Macrophage colony-stimulating factor 1 receptor (Homo sapiens) (UniProt P07333); settings: Compound concentration 1000.0 nM
[23] = molecular target: Serine/threonine-protein kinase D1 (Homo sapiens) (UniProt Q15139); settings: Compound concentration 1000.0 nM
[24] = molecular target: Serine/threonine-protein kinase Nek3 (Homo sapiens) (UniProt P51956); settings: Compound concentration 1000.0 nM
Serine/threonine-protein kinase Nek3 (Homo sapiens), sequence (P51956 whole entry): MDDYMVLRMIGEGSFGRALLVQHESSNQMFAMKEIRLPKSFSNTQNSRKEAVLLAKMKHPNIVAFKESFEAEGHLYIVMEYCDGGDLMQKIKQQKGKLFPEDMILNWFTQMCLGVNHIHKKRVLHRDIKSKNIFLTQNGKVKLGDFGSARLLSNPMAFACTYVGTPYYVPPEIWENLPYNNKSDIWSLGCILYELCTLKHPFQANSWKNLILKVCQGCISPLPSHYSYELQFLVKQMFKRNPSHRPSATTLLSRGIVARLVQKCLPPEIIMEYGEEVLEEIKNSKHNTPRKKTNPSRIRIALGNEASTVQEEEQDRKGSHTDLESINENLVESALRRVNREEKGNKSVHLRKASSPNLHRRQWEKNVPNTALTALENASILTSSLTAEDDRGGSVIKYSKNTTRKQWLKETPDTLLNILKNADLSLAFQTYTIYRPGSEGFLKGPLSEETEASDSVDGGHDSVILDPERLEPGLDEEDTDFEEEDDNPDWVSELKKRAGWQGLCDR

[25] = molecular target: Peripheral plasma membrane protein CASK (Homo sapiens) (UniProt O14936); settings: Compound concentration 1000.0 nM
[26] = molecular target: Mitogen-activated protein kinase kinase kinase 10 (Homo sapiens) (UniProt Q02779); settings: Compound concentration 1000.0 nM
[27] = molecular target: Mitogen-activated protein kinase 14 (Homo sapiens) (UniProt Q16539); settings: Compound concentration 1000.0 nM
Mitogen-activated protein kinase 14 (Homo sapiens), sequence (Q16539 whole entry): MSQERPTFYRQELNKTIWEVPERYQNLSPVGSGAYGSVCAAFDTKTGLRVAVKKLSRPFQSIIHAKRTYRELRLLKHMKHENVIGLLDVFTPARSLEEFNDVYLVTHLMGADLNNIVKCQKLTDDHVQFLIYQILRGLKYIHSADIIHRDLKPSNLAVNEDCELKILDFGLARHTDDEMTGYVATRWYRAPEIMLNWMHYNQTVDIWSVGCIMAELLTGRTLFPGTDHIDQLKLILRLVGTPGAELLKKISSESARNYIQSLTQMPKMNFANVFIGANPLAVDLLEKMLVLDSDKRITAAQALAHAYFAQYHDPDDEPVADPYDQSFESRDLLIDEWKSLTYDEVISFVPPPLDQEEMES

[28] = molecular target: RAC-alpha serine/threonine-protein kinase (Homo sapiens) (UniProt P31749); settings: Compound concentration 1000.0 nM
[29] = molecular target: Serine/threonine-protein kinase PLK1 (Homo sapiens) (UniProt P53350); settings: Compound concentration 1000.0 nM
[30] = molecular target: Mitogen-activated protein kinase kinase kinase 9 (Homo sapiens) (UniProt P80192); settings: Compound concentration 1000.0 nM
[31] = molecular target: Glycogen synthase kinase-3 alpha (Homo sapiens) (UniProt P49840); settings: Compound concentration 1000.0 nM
[32] = molecular target: Serine/threonine-protein kinase PLK4 (Homo sapiens) (UniProt O00444); settings: Compound concentration 1000.0 nM
[33] = molecular target: Serine/threonine-protein kinase 32B (Homo sapiens) (UniProt Q9NY57); settings: Compound concentration 1000.0 nM

Tyrosine-protein kinase BTK (Homo sapiens), sequence (Q06187 whole entry): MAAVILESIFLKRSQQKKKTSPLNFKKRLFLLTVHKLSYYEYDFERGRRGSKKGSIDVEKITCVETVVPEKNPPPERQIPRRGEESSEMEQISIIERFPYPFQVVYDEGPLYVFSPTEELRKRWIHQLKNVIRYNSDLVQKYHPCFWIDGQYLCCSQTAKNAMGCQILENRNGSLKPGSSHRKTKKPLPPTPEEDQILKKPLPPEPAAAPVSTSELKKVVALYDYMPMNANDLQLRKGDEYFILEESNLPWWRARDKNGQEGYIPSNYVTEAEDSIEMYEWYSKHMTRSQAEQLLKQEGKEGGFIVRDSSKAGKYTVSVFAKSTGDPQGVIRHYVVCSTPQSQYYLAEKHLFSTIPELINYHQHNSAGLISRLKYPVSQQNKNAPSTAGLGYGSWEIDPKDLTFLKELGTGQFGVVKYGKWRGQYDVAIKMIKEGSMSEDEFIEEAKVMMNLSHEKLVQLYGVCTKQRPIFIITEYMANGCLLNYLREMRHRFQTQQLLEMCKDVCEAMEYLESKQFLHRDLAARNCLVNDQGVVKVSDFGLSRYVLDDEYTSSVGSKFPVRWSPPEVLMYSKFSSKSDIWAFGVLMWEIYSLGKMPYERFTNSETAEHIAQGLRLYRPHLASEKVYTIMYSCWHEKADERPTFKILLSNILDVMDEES

O=C(O)[C@@H]1[C@@H](Cn2nnc3ccccc3c2=O)CC[C@H]1C(=O)c1ccc(OCCC2CCOCC2)cc1 [BAY-694]
inactive: residual activity [1] 100% | inhibition [2] 39.3% | residual activity [3] 100% | residual activity [4] 100% | residual activity [5] 93% | residual activity [6] 100% | residual activity [7] 98% | residual activity [8] 91% | residual activity [9] 92% | residual activity [10] 100% | residual activity [11] 100% | residual activity [12] 58% | residual activity [13] 100% | residual activity [14] 95% | residual activity [15] 100% | residual activity [16] 89% | inhibition [17] 7.62% | residual activity [18] 96% | residual activity [19] 100% | residual activity [20] 100% | inhibition [21] -2.32% | residual activity [22] 94% | residual activity [23] 100% | residual activity [24] 83% | residual activity [25] 100% | residual activity [26] 100% | residual activity [27] 89% | residual activity [28] 75% | residual activity [29] 80% | residual activity [30] 100% | residual activity [31] 93% | residual activity [32] 83% | residual activity [33] 100%

O=C(O)[C@H]1[C@H](Cn2nnc3ccccc3c2=O)CC[C@@H]1C(=O)c1ccc(OCCC2CCOCC2)cc1 [BAY-7598]
inactive: residual activity [1] 79% | inhibition [2] 28.5% | residual activity [3] 100% | residual activity [4] 100% | residual activity [5] 78% | residual activity [6] 100% | residual activity [7] 100% | residual activity [8] 100% | residual activity [9] 100% | residual activity [10] 93% | residual activity [11] 98% | residual activity [12] 53% | residual activity [13] 100% | residual activity [14] 99% | residual activity [15] 100% | residual activity [16] 89% | inhibition [17] -0.18% | residual activity [18] 98% | residual activity [19] 78% | residual activity [20] 81% | inhibition [21] 1.41% | residual activity [22] 100% | residual activity [23] 85% | residual activity [24] 86% | residual activity [25] 100% | residual activity [26] 82% | residual activity [27] 85% | residual activity [28] 83% | residual activity [29] 75% | residual activity [30] 81% | residual activity [31] 74% | residual activity [32] 97% | residual activity [33] 100%
